Experimental data: ChEMBL document CHEMBL1153565, “Physicochemical properties and membrane interactions of anti-apoptotic derivatives 2-(4-fluorophenyl)-3-(pyridin-4-yl)imidazo[1,2-a]pyridine depending on the hydroxyalkylamino side chain length and conformation: an NMR and ESR study” (Eur J Med Chem, 2009); call rule not given here

Columns and labels:
[1] = Partition coefficient, log P of the compound; type: physicochemical; conditions: octanol/water
[2] = Solubility of compound in water; type: physicochemical; conditions: buffer
[3] = test system: THP-1; experiment: Membrane penetration of compound in human THP1 cells assessed as membrane binding; type: ADME, cell-based

Q: For OCCCCNc1ccc2nc(-c3ccc(F)cc3)c(-c3ccncc3)n2c1, which logP [1] is on record?
A: Its logP is 2.3.

Q: And the solubility [2]?
A: The solubility was “Insoluble”.

Q: And the Activity [3]?
A: The Activity was “Not Active”.

Q: Which logP [1] does the source give for OCCNc1ccc2nc(-c3ccc(F)cc3)c(-c3ccncc3)n2c1 here?
A: Its logP is 1.75.

Q: What about the solubility [2] of the same compound?
A: Its solubility is “Insoluble”.

Q: And the Activity [3]?
A: The Activity was “Not Active”.

Q: What does the source list for OCCCCCCNc1ccc2nc(-c3ccc(F)cc3)c(-c3ccncc3)n2c1?
A: logP [1]: 3.2; solubility [2]: Soluble; Activity [3]: Active
